Test results from the OPERA property sets (Mansouri et al. 2018).

| SMILES | logP |
| --- | --- |
| CC[C@H]1OC(=O)[C@H](C)[C@@H](O[C@H]2C[C@@](C)(OC)[C@@H](O)[C@H](C)O2)[C@H](C)[C@@H](O[C@@H]2O[C@H](C)C[C@H](N(C)C)[C@H]2O)[C@](C)(O)C[C@@H](C)CN(C)[C@H](C)[C@@H](O)[C@]1(C)O | 4.02 |
| COC1C(OC(C)=O)CC(=O)OC(C)CC2OC2C=CC(=O)C(C)CC(CC=O)C1OC1OC(C)C(O)C(N(C)C)C1O (stereo not given) | 0.3 |
| CC[C@H]1OC(=O)C[C@@H](O)[C@H](C)[C@@H](O[C@@H]2O[C@H](C)[C@@H](O[C@H]3C[C@@](C)(O)[C@@H](O)[C@H](C)O3)[C@H](N(C)C)[C@H]2O)[C@@H](CC=O)C[C@@H](C)C(=O)C=CC(C)=CC1CO[C@@H]1O[C@H](C)[C@@H](O)[C@@H](OC)[C@H]1OC (stereo not given in full) | 1.63 |
| CCC1OC(=O)CC(O)C(C)C(OC2OC(C)C(O)C(N(C)C)C2O)C(CC=O)CC(C)C(=O)C=CC(C)=CC1CO (stereo not given) | 0.99 |
| CCC1OC(=O)C[C@@H](O)[C@H](C)[C@@H](O[C@@H]2O[C@H](C)C[C@H](N(C)C)[C@H]2O)[C@@H](CC=O)C[C@@H](C)C(=O)C=C[C@]2(C)OC2C1C (stereo not given in full) | 2.19 |
| CC[C@H]1OC(=O)C[C@@H](O)[C@H](C)[C@@H](O[C@@H]2O[C@H](C)[C@@H](O)[C@H](N(C)C)[C@H]2O)[C@@H](CCN2C[C@H](C)C[C@H](C)C2)C[C@@H](C)C(=O)C=CC(C)=C[C@@H]1CO[C@@H]1O[C@H](C)[C@@H](O)[C@@H](OC)[C@H]1OC | 3.8 |
| CO[C@@H]1[C@@H](O[C@@H]2O[C@H](C)[C@@H](O[C@H]3C[C@@](C)(O)[C@@H](OC(=O)CC(C)C)[C@H](C)O3)[C@H](N(C)C)[C@H]2O)[C@@H](CC=O)C[C@@H](C)C(=O)C=CC2OC2C[C@@H](C)OC(=O)C[C@H]1OC(C)=O (stereo not given in full) | 3.04 |

Further lines, results first:

| logP | SMILES |
| --- | --- |
| 2.92 | CCC1OC(=O)C(C)C(OC2CC(C)(OC)C(O)C(C)O2)C(C)C(OC2OC(C)CC(N(C)C)C2O)C(C)(O)CC(C)C(N)C(C)C2OC(=O)OC12C (stereo not given) |
| 1.69 | CO[C@H]1C[C@H](O[C@H]2[C@H](C)[C@@H](O[C@@H]3O[C@H](C)C[C@H](N(C)C)[C@H]3O)[C@@H](C)C[C@]3(CO3)C(=O)[C@H](C)[C@@H](O)[C@@H](C)[C@@H](C)OC(=O)[C@@H]2C)O[C@@H](C)[C@@H]1O |
| 3.06 | CC[C@H]1OC(=O)[C@H](C)[C@@H](O[C@H]2C[C@@](C)(OC)[C@@H](O)[C@H](C)O2)[C@H](C)[C@@H](O[C@@H]2O[C@H](C)C[C@H](N(C)C)[C@H]2O)[C@](C)(O)C[C@@H](C)C(=O)[C@H](C)[C@@H](O)[C@]1(C)O |
